The term Kd denotes the equilibrium constant for the complex coming apart.

Drawing on ChEMBL document CHEMBL3991601, “The target landscape of clinical kinase drugs” (Science, 2017), this text covers Kd for 13 compounds.

For assay [1], the target named is Putative nucleoside diphosphate kinase (Homo sapiens, UniProt O60361).
For a further assay, the target named is Actin-related protein 3 (Homo sapiens, UniProt P61158).
The target of assay [2] is Cyclin-dependent kinase 18 (Homo sapiens, UniProt Q07002).
Cyclin-dependent kinase 18, sequence (Q07002 whole entry): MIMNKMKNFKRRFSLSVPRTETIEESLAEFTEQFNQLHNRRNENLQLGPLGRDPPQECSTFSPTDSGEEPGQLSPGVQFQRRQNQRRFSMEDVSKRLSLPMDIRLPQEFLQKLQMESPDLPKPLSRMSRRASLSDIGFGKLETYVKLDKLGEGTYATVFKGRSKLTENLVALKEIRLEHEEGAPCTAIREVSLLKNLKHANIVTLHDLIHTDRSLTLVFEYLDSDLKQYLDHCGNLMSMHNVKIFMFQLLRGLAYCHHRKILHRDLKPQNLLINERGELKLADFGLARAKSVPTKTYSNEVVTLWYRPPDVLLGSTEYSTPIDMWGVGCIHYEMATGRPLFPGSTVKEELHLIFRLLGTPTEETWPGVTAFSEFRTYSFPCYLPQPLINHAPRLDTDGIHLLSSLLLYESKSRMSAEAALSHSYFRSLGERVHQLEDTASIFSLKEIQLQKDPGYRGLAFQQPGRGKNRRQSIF
The target of assay [3] is T1, General transcription and DNA repair factor IIH helicase subunit XPD (Homo sapiens, UniProt P18074).
T1 sequence (P18074 whole entry): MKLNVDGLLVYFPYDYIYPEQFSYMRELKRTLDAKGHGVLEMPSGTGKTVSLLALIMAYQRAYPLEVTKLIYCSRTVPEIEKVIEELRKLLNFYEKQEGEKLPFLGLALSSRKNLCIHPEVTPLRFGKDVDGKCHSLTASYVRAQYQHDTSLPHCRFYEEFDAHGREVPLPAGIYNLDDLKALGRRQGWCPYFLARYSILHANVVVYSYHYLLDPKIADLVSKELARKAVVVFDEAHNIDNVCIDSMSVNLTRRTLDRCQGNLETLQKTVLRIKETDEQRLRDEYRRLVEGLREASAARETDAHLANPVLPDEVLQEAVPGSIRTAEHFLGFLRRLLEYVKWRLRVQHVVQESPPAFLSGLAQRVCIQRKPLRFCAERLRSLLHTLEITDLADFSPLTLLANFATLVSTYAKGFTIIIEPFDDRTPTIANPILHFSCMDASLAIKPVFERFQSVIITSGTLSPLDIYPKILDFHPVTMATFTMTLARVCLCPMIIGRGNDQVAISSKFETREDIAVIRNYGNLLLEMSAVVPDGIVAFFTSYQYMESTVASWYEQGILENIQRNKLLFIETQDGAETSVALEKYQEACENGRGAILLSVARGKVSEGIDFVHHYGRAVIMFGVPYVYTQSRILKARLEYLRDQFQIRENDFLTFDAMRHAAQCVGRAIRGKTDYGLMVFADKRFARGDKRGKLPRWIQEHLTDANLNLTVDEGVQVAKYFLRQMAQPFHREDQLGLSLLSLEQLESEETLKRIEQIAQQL

For assay [4], the target named is Mast/stem cell growth factor receptor Kit (Homo sapiens, UniProt P10721).
Mast/stem cell growth factor receptor Kit, sequence (P10721 whole entry): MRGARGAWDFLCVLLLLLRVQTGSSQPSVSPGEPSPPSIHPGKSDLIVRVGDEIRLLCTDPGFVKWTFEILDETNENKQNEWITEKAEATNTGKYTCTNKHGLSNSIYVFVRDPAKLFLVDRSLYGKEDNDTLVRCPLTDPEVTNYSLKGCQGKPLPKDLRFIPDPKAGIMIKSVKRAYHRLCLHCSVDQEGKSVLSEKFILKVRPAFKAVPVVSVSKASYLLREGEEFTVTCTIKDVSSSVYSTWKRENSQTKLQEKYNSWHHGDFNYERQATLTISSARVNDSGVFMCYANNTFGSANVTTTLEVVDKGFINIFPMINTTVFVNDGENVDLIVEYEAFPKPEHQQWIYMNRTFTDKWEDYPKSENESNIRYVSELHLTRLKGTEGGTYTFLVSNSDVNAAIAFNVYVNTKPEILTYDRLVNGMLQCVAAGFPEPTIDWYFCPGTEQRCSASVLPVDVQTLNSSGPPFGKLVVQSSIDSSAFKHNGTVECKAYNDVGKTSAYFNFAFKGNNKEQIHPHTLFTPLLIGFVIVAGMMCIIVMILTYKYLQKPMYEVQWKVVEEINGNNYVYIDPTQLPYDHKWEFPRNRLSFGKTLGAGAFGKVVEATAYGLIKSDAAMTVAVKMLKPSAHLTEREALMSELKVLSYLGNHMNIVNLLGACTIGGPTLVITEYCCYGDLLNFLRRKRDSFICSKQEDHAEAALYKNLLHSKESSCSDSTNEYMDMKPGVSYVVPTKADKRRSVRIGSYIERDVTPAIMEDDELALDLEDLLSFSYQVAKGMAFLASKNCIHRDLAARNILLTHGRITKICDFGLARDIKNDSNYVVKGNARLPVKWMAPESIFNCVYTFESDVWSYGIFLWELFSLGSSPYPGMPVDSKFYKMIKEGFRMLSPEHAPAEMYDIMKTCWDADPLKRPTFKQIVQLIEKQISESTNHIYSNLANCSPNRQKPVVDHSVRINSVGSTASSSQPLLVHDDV
For assay [5], the target named is 5'-AMP-activated protein kinase subunit gamma-1 (Homo sapiens, UniProt P54619).
5'-AMP-activated protein kinase subunit gamma-1, sequence (P54619 whole entry): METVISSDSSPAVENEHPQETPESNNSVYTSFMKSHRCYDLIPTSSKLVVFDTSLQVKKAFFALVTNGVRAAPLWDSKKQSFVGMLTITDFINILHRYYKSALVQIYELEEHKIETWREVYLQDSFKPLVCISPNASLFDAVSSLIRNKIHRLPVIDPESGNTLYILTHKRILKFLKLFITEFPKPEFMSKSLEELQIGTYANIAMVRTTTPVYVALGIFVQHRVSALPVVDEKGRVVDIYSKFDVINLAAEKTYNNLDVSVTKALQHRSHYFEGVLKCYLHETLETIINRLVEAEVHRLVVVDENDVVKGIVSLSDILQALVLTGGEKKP
Assay [6] concerns the target 5'-AMP-activated protein kinase subunit gamma-2 (Homo sapiens, UniProt Q9UGJ0).
Assay [7] addresses T2, Uncharacterized protein FLJ45252 (Homo sapiens, UniProt Q6ZSR9).
T2 sequence (Q6ZSR9 whole entry): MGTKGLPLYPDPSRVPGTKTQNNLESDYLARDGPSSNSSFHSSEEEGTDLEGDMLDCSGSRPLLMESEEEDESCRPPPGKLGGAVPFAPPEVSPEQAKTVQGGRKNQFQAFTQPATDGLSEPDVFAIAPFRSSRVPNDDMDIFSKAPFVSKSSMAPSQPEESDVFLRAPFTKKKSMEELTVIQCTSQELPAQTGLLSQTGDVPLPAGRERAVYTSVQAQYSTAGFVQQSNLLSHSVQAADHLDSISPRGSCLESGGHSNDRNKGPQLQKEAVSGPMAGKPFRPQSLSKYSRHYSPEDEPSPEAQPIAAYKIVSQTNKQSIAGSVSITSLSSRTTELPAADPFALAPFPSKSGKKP

Assay [8] addresses Cyclin-dependent kinase 9 (Homo sapiens, UniProt P50750).

Each structure is given as a SMILES string. Activity calls are given as the source filed them. Unless noted, the calls are words filed in the database; no cut-off is given here.

Cyclin-dependent kinase 9, sequence (P50750 whole entry): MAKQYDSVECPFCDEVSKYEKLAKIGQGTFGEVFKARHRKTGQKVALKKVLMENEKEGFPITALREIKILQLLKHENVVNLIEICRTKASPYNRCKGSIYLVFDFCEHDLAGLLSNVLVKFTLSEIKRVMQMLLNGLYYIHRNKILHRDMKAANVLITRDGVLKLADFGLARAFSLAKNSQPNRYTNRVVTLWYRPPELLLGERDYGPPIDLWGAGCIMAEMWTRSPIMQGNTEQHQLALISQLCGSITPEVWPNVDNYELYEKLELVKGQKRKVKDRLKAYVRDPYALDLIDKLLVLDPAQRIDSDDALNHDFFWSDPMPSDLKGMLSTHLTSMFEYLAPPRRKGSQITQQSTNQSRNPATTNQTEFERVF
Putative nucleoside diphosphate kinase, sequence (O60361 whole entry): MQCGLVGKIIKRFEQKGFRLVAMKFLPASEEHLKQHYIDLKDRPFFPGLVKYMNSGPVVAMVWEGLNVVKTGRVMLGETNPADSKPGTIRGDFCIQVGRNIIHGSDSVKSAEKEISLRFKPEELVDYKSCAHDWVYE
5'-AMP-activated protein kinase subunit gamma-2, sequence (Q9UGJ0 whole entry): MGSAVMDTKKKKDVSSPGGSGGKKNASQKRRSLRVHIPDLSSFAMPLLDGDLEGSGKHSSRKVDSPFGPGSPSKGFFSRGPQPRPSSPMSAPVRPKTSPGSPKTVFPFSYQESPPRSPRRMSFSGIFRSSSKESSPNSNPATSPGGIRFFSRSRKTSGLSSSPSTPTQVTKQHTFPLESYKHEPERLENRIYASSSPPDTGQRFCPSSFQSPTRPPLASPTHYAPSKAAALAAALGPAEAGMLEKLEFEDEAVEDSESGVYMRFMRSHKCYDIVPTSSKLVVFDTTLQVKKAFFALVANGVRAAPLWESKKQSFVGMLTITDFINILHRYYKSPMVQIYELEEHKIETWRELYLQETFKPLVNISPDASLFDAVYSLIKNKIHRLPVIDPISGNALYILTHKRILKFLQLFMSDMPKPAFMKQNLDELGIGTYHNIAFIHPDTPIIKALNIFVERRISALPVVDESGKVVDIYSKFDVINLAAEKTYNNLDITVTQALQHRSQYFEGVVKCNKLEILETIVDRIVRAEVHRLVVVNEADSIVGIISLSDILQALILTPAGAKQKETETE

As for `COc1cc(Nc2ncc3c(n2)-c2ccc(Cl)cc2C(c2c(F)cccc2OC)=NC3)ccc1C(=O)O` [ALISERTIB], the Kd in assay [1] was > 30 µM (inactive).
On to `NC(=O)Nc1cc(-c2cccc(F)c2)sc1C(=O)N[C@H]1CCCNC1` [AZD-7762], for which the Kd on Actin-related protein 3 is > 30 µM (inactive).
On to `COc1c(OCCCN2CCOCC2)ccc2c1N=C(NC(=O)c1cnc(N)nc1)N1CCN=C21` [COPANLISIB], for which the Kd in [2], in [3], in assay [4], in assay [5], in assay [6] and in assay [7] was > 30 µM (inactive) in each case.
For `O=C(Nc1nc2cccc(-c3ccc(CN4CCS(=O)(=O)CC4)cc3)n2n1)C1CC1` [FILGOTINIB], the Kd is > 30 µM (inactive) in assay [3], > 30 µM (inactive) in assay [5], > 30 µM (inactive) in assay [6] and 4.38 µM (active) in assay [7].
As for `CN(C[C@@H]1COCCO1)S(=O)(=O)Nc1ccc2ccc3ncc(-c4cnn(C)c4)cc3c(=O)c2c1` [MK-2461], the Kd in assay [2] was > 30 µM (inactive).
Take `COc1ncc(-c2ccc3nccc(-c4ccnnc4)c3c2)cc1NS(=O)(=O)c1ccc(F)cc1F` [OMIPALISIB]: the Kd in assay [4] and in assay [1] was > 30 µM (inactive) throughout.
As for `Cc1nc(Nc2n[nH]c3c2CN(C(=O)N[C@H](CN(C)C)c2ccccc2)C3(C)C)c2sccc2n1` [PF-03758309], the values for the Kd (on Actin-related protein 3; in [2]) were > 30 µM (inactive) and 0.067 µM (active), respectively.
As to `CO[C@H]1C[C@@H]2CC[C@@H](C)[C@@](O)(O2)C(=O)C(=O)N2CCCC[C@H]2C(=O)O[C@H]([C@H](C)C[C@@H]2CC[C@@H](OP(C)(C)=O)[C@H](OC)C2)CC(=O)[C@H](C)/C=C(\C)[C@@H](O)[C@@H](OC)C(=O)[C@H](C)C[C@H](C)/C=C/C=C/C=C/1C` [RIDAFOROLIMUS], the Kd in assay [8] is > 30 µM (inactive).
On to `O=c1[nH]ccc2cc(OC3CCNCC3)ccc12` [SAR-407899 FREE BASE], for which the Kd in [4] was > 30 µM (inactive).
With `CO[C@H]1C[C@@H]2CC[C@@H](C)[C@@](O)(O2)C(=O)C(=O)N2CCCC[C@H]2C(=O)O[C@H]([C@H](C)C[C@@H]2CC[C@@H](O)[C@H](OC)C2)CC(=O)[C@H](C)/C=C(\C)[C@@H](O)[C@@H](OC)C(=O)[C@H](C)C[C@H](C)/C=C/C=C/C=C/1C` [SIROLIMUS], the Kd in assay [2] and in [8] was > 30 µM (inactive) each time.
With `CO[C@H]1C[C@@H]2CC[C@@H](C)[C@@](O)(O2)C(=O)C(=O)N2CCCC[C@H]2C(=O)O[C@H]([C@H](C)C[C@@H]2CC[C@@H](OC(=O)C(C)(CO)CO)[C@H](OC)C2)CC(=O)[C@H](C)/C=C(\C)[C@@H](O)[C@@H](OC)C(=O)[C@H](C)C[C@H](C)/C=C/C=C/C=C/1C` [TEMSIROLIMUS], in [8], the Kd was > 30 µM (inactive).
For the compound `Cc1cc(Nc2ncnc3ccc(NC4=NC(C)(C)CO4)cc23)ccc1Oc1ccn2ncnc2c1` [TUCATINIB], the Kd in assay [2] was > 30 µM (inactive).
Regarding `C[C@@H](N)c1ccc(C(=O)Nc2ccnc3[nH]ccc23)cc1` [Y-39983], the Kd in assay [4] was > 30 µM (inactive).
